Measured values taken from US7465754B1, “Method of potentiating chemotherapy and treating solid tumors” (Wyeth, priority 1999, dated 2008).

Columns and labels:
[1] = system: human non small-cell lung carcinoma (NSCLC) line H-157; test: H-157 NSCLC xenograft in nude mice, tumor growth; assay type: in vivo
Description: The potentiating effect of bioresponse modifiers on chemotherapeutic agents was evaluated in an in vivo standard pharmacological test procedure in which a human non small cell type lung cancer (NSCLC) cell line was engrafted onto the flanks of immunodeficient nude mice. The following briefly describes the test procedure used and results obtained. [R-(R*,R*)]-N-[(R)-6-Carboxy-N^2-[[2-carboxy-1-methyl-2-[(1-oxoheptyl)amino]ethoxy]carbonyl]-L-lysyl]-alanine was used as a representative bioresponse modifier and paclitaxcel was used a representative chemotherapeutic agent.
Balb-c nu/nu female mice were obtained from Charles River Laboratories at 6-8 weeks of age and used experimentally at 8-10 weeks of age. The human non small-cell lung carcinoma (NSCLC) line H-157 was obtained from the American tissue culture collection (ATCC) (Bethesda, Md.). Cells were grown in RPMI medium with 10% fetal bovine serum.
Mice were injected subcutaneously with 7.5×10^6H-157 NSCLC tumor cells. Tumors were allowed to develop until they reached a size of 80-150 mg. Tumor size was determined using vernier calipers to measure length (l) and width (w). The tumor volume was estimated using the formula l×w^2/2. The volume in mm^3 can be converted to milligrams directly assuming unit density. Seven days after injection, mice were randomized (day 0) into groups of 10 with a mean tumor mass of 100 mg. Treatment groups received paclitaxcel (30 mg/kg) on day 0 and either vehicle or [R-(R*,R*)]-N-[(R)-6-Carboxy-N^2-[[2-carboxy-1-methyl-2-[(1-oxoheptyl)amino]ethoxy]carbonyl]-L-lysyl]-alanine (100 μg/kg) on days 1 and 8.

[2] = system: tumor cell growth in vitro; test: Tumor cell growth in vitro / cell culture; assay type: cell-based

Structure (SMILES) | % Suppression (Day 7) ([1]; Day 7, versus untreated control, paclitaxcel 30 mg/kg day 0, vehicle or CI 100 μg/kg days 1 and 8) [%] | Tumor size (mg) Day 7 ([1]; Day 7, paclitaxcel 30 mg/kg day 0, vehicle or CI 100 μg/kg days 1 and 8, mean ± standard deviation, 5 evaluations, 10 mice/group) | % Suppression (Day 14) ([1]; Day 14, versus untreated control, paclitaxcel 30 mg/kg day 0, vehicle or CI 100 μg/kg days 1 and 8) [%] | Tumor size (mg) Day 14 ([1]; Day 14, paclitaxcel 30 mg/kg day 0, vehicle or CI 100 μg/kg days 1 and 8, mean ± standard deviation, 5 evaluations, 10 mice/group) [mg] | tumor cell growth (in words) ([1]; day 7, Student's t test) | tumor growth (in words) ([1]; day 14) | potentiation of the growth inhibitory effect of paclitaxcel in cell culture ([2]; cell culture, with paclitaxcel) | direct inhibition of tumor cell growth in vitro ([2]; in vitro)
CC(=O)O[C@H]1C(=O)[C@@]2(C)[C@H]([C@H](OC(=O)c3ccccc3)[C@]3(O)C[C@H](OC(=O)[C@H](O)[C@@H](NC(=O)c4ccccc4)c4ccccc4)C(C)=C1C3(C)C)[C@]1(OC(C)=O)CO[C@@H]1C[C@@H]2O [Paclitaxcel, paclitaxcel] | 30 | ^c289 ± 108 mg | 30 | 866 ± 348 | inhibited tumor cell growth | not significantly suppressed versus control |  | 
CCCCCCC(=O)N[C@@H](C(=O)O)[C@@H](C)OC(=O)N[C@@H](CCC[C@@H](N)C(=O)O)C(=O)NC(C)C(=O)O (relative stereo) [CI, [R-(R*,R*)]-N-[(R)-6-carboxy-N^2-[[2-carboxy-1-methyl-2-[(1-oxoheptyl)amino]ethoxy]carbonyl]-L-lysyl]-alanine] |  |  |  |  |  |  | nor does it potentiate the growth inhibitory effect of paclitaxcel in cell culture | does not directly inhibit tumor cell growth in vitro
